Results taken from US10131679B2, “Substituted dihydropyrrolopyrazole compound” (UBE INDUSTRIES, LTD., priority 2014, dated 2018).
Counter-ions that a name gives are not always drawn.

Tests used:
CDK7 = molecular target: T1, CDK7 (Homo sapiens, UniProt P50613); assay: CDK7 enzyme inhibition test; assay type: biochemical; settings: Ki=IC50/(1+S/Km); 33P bound to MBP, [γ-33P]ATP, 30° C. for 20 minutes; read-out: Ki value of CDK7 inhibitory activity
T1 construct: purchased Carna Biosciences, Inc. 04-108
T1 sequence (P50613 whole entry): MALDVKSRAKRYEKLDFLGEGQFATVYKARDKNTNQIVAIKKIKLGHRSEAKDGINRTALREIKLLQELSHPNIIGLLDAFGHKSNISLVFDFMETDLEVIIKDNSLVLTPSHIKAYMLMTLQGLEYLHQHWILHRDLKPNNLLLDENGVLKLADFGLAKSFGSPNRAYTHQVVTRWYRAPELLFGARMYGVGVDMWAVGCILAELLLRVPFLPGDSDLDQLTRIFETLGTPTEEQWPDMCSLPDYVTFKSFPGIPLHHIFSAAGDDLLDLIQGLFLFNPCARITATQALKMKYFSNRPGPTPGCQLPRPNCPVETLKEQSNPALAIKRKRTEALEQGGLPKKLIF
T1 sequence (P51946 whole entry partner): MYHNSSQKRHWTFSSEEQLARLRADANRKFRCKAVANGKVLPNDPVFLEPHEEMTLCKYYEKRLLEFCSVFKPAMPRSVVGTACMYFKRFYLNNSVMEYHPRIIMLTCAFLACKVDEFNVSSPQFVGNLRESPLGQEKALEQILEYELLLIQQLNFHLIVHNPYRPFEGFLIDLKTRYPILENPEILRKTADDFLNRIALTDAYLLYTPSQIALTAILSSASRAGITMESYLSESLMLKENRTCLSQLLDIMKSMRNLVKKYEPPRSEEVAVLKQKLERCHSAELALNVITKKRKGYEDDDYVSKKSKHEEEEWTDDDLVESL
T1 sequence (P51948 whole entry partner): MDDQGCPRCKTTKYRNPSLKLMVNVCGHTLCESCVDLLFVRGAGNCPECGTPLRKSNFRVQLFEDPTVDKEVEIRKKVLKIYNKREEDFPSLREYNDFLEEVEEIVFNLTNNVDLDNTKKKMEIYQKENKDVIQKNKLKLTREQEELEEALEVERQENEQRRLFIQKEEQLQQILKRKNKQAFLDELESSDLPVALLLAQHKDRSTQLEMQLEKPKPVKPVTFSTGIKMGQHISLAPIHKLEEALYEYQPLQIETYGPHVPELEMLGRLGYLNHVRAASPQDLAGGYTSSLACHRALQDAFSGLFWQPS
Experimental: CDK7 Enzyme Inhibition Test
The preparation of a buffer solution was performed by mixing a N-2-hydroxyethylpiperazine-N′-2-ethanesulfonic acid buffer solution (HEPES buffer solution) (pH 7.4), dithiothreitol (DTT), Triton X-100, and magnesium chloride (MgCl2). A 500 μM [γ-^33P]ATP solution was used by diluting a 10 mM ATP solution and a commercially available [γ-^33P]ATP solution (manufactured by PerkinElmer, Inc., Code No. NEG-302H) with the buffer solution. A CDK7 solution was used by diluting commercially available CDK7 (manufactured by Carna Biosciences, Inc., Catalog No. 04-108) with the buffer solution. A substrate solution was used by diluting myelin basic protein (MBP) with the buffer solution. As for the preparation of a reaction solution, the buffer solution, the 500 μM [γ-^33P]ATP solution, the CDK7 solution, and the substrate solution were mixed at 4° C. to obtain a reaction solution.
CDK7 enzyme reaction was performed by adding 5 μL of a test compound solution prepared with 10% dimethyl sulfoxide (DMSO)/90% injectable distilled water, and 45 μL of the reaction solution to a 1.5 mL microtube at 4° C. and reacting in the microtube at 30° C. for 20 minutes in a water bath incubator. After the reaction, a 10% aqueous trichloroacetic acid (TCA) solution was added to each microtube while cooled to 4° C., and mixed to terminate the reaction. The resultant was left standing at 4° C. for 10 minutes and then centrifuged in a centrifuge, and the supernatant was discarded. Next, a 2% aqueous TCA solution was added, mixed, and then centrifuged in a centrifuge, and the supernatant was discarded. This washing operation was performed twice. After the washing, precipitates were dissolved in a 1 N aqueous sodium hydroxide (NaOH) solution, and the energy quantity (radioactivity) of the reaction product was measured with a liquid scintillation counter.
The calculation of the inhibitory activity of the test compound against CDK7 was performed as a test compound concentration inhibiting 50% of the amount of ^33P bound to MBP (IC50 value) by using EXSUS (version 8.0.0 or version 8.0.1, manufactured by CAC Exicare Corp.).
(§1) The calculation of a Ki value was performed according to the following calculation expression. S means the concentration of ATP contained in the reaction solution, and Km means a Michaelis-Menten constant. Ki=IC50/(1+S/Km)

CDK2 = molecular target: T2, CDK2 (Homo sapiens, UniProt P24941); assay: CDK2 enzyme inhibition test; assay type: biochemical; settings: Ki=IC50/(1+S/Km); 33P bound to MBP, [γ-33P]ATP, 30° C. for 20 minutes; read-out: Ki value of CDK2 inhibitory activity
T2 construct: purchased Invitrogen Corp. PV3267
Experimental: CDK2 Enzyme Inhibition Test
The preparation of a buffer solution was performed by mixing a HEPES buffer solution (pH 7.4), DTT, Triton X-100, and MgCl2. A 500 μM [γ-^33P]ATP solution was used by diluting a 10 mM ATP solution and a commercially available [γ-^33P]ATP solution (manufactured by PerkinElmer, Inc., Code No. NEG-302H) with the buffer solution. A CDK2 solution was used by diluting commercially available CDK2 (manufactured by Invitrogen Corp., Catalog No. PV3267) with the buffer solution. A substrate solution was used by diluting MBP with the buffer solution. As for the preparation of a reaction solution, the buffer solution, the 500 μM [γ-^33P]ATP solution, the CDK2 solution, and the substrate solution were mixed at 4° C. to obtain a reaction solution.
(§2) CDK2 enzyme reaction was performed by adding 5 μL of a test compound solution prepared with 10% DMSO/90% injectable distilled water, and 45 μL of the reaction solution in a 1.5 mL microtube at 4° C. and reacting in the microtube at 30° C. for 20 minutes in a water bath incubator. After the reaction, a 10% aqueous TCA solution was added to each microtube while cooled to 4° C., and mixed to terminate the reaction. The resultant was left standing at 4° C. for 10 minutes and then centrifuged in a centrifuge, and the supernatant was discarded. Next, a 2% aqueous TCA solution was added, mixed thereto, and then centrifuged in a centrifuge, and the supernatant was discarded. This washing operation was performed twice. After the washing, precipitates were dissolved in a 1 N aqueous NaOH solution, and the radioactivity was measured with a liquid scintillation counter.
The calculation of the inhibitory activity of the test compound against CDK2 was performed as a test compound concentration inhibiting 50% of the amount of ^33P bound to MBP (IC50 value) by using EXSUS (version 8.0.0 or version 8.0.1, manufactured by CAC Exicare Corp.).
as §1

PAK4 = molecular target: T3, PAK4 (Homo sapiens, UniProt O96013); assay: PAK4 enzyme inhibition test; assay type: biochemical; settings: Ki=IC50/(1+S/Km); 33P bound to MBP, [γ-33P]ATP, 30° C. for 20 minutes; read-out: Ki value of PAK4 inhibitory activity
T3 construct: purchased Invitrogen Corp. PV4212
T3 sequence (O96013 whole entry): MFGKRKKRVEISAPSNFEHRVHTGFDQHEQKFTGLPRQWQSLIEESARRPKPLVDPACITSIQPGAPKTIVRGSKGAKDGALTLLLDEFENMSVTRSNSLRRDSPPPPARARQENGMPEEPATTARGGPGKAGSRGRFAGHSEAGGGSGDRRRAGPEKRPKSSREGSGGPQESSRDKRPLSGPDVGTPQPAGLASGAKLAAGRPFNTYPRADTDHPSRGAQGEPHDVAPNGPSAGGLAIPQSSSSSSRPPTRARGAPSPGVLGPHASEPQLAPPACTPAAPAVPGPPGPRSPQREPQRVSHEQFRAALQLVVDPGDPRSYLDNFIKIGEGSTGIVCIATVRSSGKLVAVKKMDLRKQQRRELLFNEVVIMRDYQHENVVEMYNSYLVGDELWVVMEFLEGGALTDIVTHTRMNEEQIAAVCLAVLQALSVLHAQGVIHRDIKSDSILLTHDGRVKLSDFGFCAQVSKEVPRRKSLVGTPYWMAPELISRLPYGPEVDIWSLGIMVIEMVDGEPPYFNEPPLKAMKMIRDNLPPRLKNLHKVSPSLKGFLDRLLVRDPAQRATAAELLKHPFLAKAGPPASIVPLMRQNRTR
Experimental: PAK4 Enzyme Inhibition Test
The preparation of a buffer solution was performed by mixing a trishydroxyaminomethane buffer solution (Tris buffer solution) (pH 7.5), DTT, Triton X-100, MgCl2, ethylene glycol bis(β-aminoethyl ether)-N,N,N′,N′-tetraacetic acid (EGTA), (3-glycerol phosphate, and sodium orthovanadate(V). A 40 μM [γ-^33P]ATP solution was used by diluting a 10 mM ATP solution and a commercially available [γ-^33P]ATP solution (manufactured by PerkinElmer, Inc., Code No. NEG-302H) with the buffer solution. A PAK4 solution was used by diluting commercially available PAK4 (manufactured by Invitrogen Corp., Catalog No. PV4212) with the buffer solution. A substrate solution was used by diluting MBP with the buffer solution. As for the preparation of a reaction solution, the buffer solution, the 40 μM [γ-^33P]ATP solution, the PAK4 solution, and the substrate solution were mixed at 4° C. to obtain a reaction solution.
as §2, with “PAK4” for “CDK2”, “mixed,” for “mixed thereto,”
The calculation of the inhibitory activity of the test compound against PAK4 was performed as a test compound concentration inhibiting 50% of the amount of ^33P bound to MBP (IC50 value) by using EXSUS (version 8.0.0 or version 8.0.1, manufactured by CAC Exicare Corp.).
as §1

[1] = system: human large intestine cancer cell line (HCT-116); assay: Human large intestine cancer (HCT-116) cell growth inhibition test; assay type: cell-based; settings: 72 h, HCT-116, culture for 3 days, sulforhodamine B absorbance
Experimental: Human Large Intestine Cancer (HCT-116) Cell Growth Inhibition Test
The measurement of a human large intestine cancer cell growth inhibitory effect was carried out by modifying the method of Simak et al. (Cancer Research, 69, 6208 (2009)).
A human large intestine cancer cell line (HCT-116) (manufactured by DS Pharma Biomedical Co., Ltd., Cat. No. EC91091005) was cultured in McCoy's 5a (manufactured by GIBCO/Thermo Fisher Scientific, Inc., REF. 16600-082) medium containing 10% FBS (manufactured by GIBCO/Thermo Fisher Scientific, Inc., REF. 10082-147) and 1% penicillin/streptomycin/amphotericin B (manufactured by GIBCO/Thermo Fisher Scientific, Inc., REF. 15240-096) and inoculated at 1.0×10^3 cells/well in a 96-well plate (manufactured by Corning Inc., REF. 353072). After overnight culture in a carbon dioxide incubator, it was replaced with a fresh McCoy's 5a medium containing 10% FBS on the next day, and a test compound dissolved in DMSO (manufactured by Wako Pure Chemical Industries, Ltd., Code No. 043-07216) (final DMSO concentration: 0.1%) was added and left standing in a carbon dioxide incubator. After culturing for 3 days, the absorbance of each well was measured by using In Vitro Toxicology Assay Kit Sulforhodamine B based (manufactured by Sigma-Aldrich Co. LLC., Pcode 1001910706).
The rate of inhibition of cell growth at each concentration was calculated from the test compound concentration and the absorbance of sulforhodamine B, and the concentration of the test compound necessary for inhibiting 50% of cell growth (IC50 value) was calculated by using EXSUS (version 8.0.0 or version 8.0.1, manufactured by CAC Exicare Corp.).

SMILES | Ki (CDK7) | Ki (CDK2) | Ki (PAK4) | IC50 [1]
CC[Si](C)(C)C(C)(C)C(=O)Nc1n[nH]c2c1CN(C(=O)N[C@H](CO)c1ccccc1)C2(C)C [II-116, (S)-3-[2-(Ethyldimethylsilyl)-2-methylpropanamido]-N-(2-hydroxy-1-phenylethyl)-6,6-dimethyl-4,6-dihydropyrrolo[3,4-c]pyrazole-5(1H)-carboxamide] | ≤ 0.05 µM | ≥ 1 µM | ≥ 0.5 µM | ≤ 0.5 µM
CC(C)(O)C[C@@H](NC(=O)N1Cc2c(NC(=O)C3([Si](C)(C)C)CC3)n[nH]c2C1(C)C)c1ccccc1 [III-298, (R)—N-(3-Hydroxy-3-methyl-1-phenylbutyl)-6,6-dimethyl-3-[1-(trimethylsilyl)cyclopropanecarboxamido]-4,6-dihydropyrrolo[3,4-c]pyrazole-5(1H)-carboxamide] | ≤ 0.05 µM | ≥ 1 µM | ≥ 0.5 µM | ≤ 0.5 µM
CC(C)(CO)C(NC(=O)N1Cc2c(NC(=O)C3([Si](C)(C)C)CC3)n[nH]c2C1(C)C)c1ccccc1 (centres unmarked) [III-353, N-(3-Hydroxy-2,2-dimethyl-1-phenylpropyl)-6,6-dimethyl-3-[1-(trimethylsilyl)cyclopropanecarboxamido]-4,6-dihydropyrrolo[3,4-c]pyrazole-5(1H)-carboxamide] | ≤ 0.05 µM | ≥ 1 µM | ≥ 0.5 µM | ≤ 0.5 µM
CC1(C)c2[nH]nc(NC(=O)C3([Si](C)(C)C)CCC3)c2CN1C(=O)N[C@@H](CO)c1ccccc1 [IV-115, (R)—N-(2-Hydroxy-1-phenylethyl)-6,6-dimethyl-3-[1-(trimethylsilyl)cyclobutanecarboxamido]-4,6-dihydropyrrolo[3,4-c]pyrazole-5(1H)-carboxamide] |  | ≥ 1 µM | ≥ 0.5 µM | 
CC1(C)c2[nH]nc(NC(=O)C3([Si](C)(C)C)CCC3)c2CN1C(=O)N[C@H](C(=O)O)c1ccccc1 [IV-403 (sodium salt), Sodium (S)-2-{6,6-dimethyl-3-[1-(trimethylsilyl)cyclobutanecarboxamido]-1,4,5,6-tetrahydropyrrolo[3,4-c]pyrazole-5-carboxamido}-2-phenylacetate] | ≤ 0.05 µM | ≥ 1 µM | ≥ 0.5 µM | 
CC(O)CNC(=O)N1Cc2c(NC(=O)C3([Si](C)(C)C)CCC3)n[nH]c2C1(C)C (centres unmarked) [IV-442, N-(2-Hydroxypropyl)-6,6-dimethyl-3-[1-(trimethylsilyl)cyclobutanecarboxamido]-4,6-dihydropyrrolo[3,4-c]pyrazole-5(1H)-carboxamide] | ≤ 0.05 µM | ≥ 1 µM | ≥ 0.5 µM | ≤ 0.5 µM
CC1(C)c2[nH]nc(NC(=O)C3([Si](C)(C)C)CCC3)c2CN1C(=O)NC(CO)c1ccccn1 (centres unmarked) [IV-534, N-[2-Hydroxy-1-(pyridin-2-yl)ethyl]-6,6-dimethyl-3-[1-(trimethylsilyl)cyclobutanecarboxamido]-4,6-dihydropyrrolo[3,4-c]pyrazole-5(1H)-carboxamide] | ≤ 0.05 µM | ≥ 1 µM | ≥ 0.5 µM | ≤ 0.5 µM
CC(C)C(NC(=O)N1Cc2c(NC(=O)C3([Si](C)(C)C)CCC3)n[nH]c2C1(C)C)C(C)(C)CO (centres unmarked) [IV-822, N-(1-Hydroxy-2,2,4-trimethylpentan-3-yl)-6,6-dimethyl-3-[1-(trimethylsilyl)cyclobutanecarboxamido]-4,6-dihydropyrrolo[3,4-c]pyrazole-5(1H)-carboxamide] | ≤ 0.05 µM | ≥ 1 µM | ≥ 0.5 µM | ≤ 0.5 µM
CC(C)(O)C[C@@H](NC(=O)N1Cc2c(NC(=O)C3([Si](C)(C)C)CCC3)n[nH]c2C1(C)C)c1ccccc1F [IV-883, (R)—N-[1-(2-Fluorophenyl)-3-hydroxy-3-methylbutyl]-6,6-dimethyl-3-[1-(trimethylsilyl)cyclobutanecarboxamido]-4,6-dihydropyrrolo[3,4-c]pyrazole-5(1H)-carboxamide] |  | ≥ 1 µM | ≥ 0.5 µM | ≤ 0.5 µM
